Data published in patent US20060148903A1, “Capsaicinoid gel formulation and uses thereof” (AlgoRx Pharmaceuticals, Inc., priority 2004, published 2006).
In brackets after ≈: the same amount, converted by molar mass.

Tests used:
[1] = fold more potent than capsaicin; cited from earlier work
physchem [2] = type: physicochemical; settings: 25 °C, thermodynamic from solid
Experimental: A known weight of capsaicin drug substance was weighed into a 4 ml Wheaton vial. A known volume of solvent was added and the sample placed in an ultrasonic bath for a minimum of 5 minutes. The temperature of the water bath was kept <25° C. at all times. Samples were transferred to a shaker bath at 25° C./60% RH and left for a minimum of 5 days. The samples were inspected and samples showing saturation (excess solid material remaining) removed for analysis. An additional known weight of capsaicin was added to the remaining samples and they were returned to the shaker bath. This was repeated until all samples had reached saturation.
Samples were filtered through a 0.45 μm PVDF Millipore Millex-HV hydrophilic disposable filter into a clean Wheaton vial. Sample absorbance was determined at 280 nm using 2 mm matched cuvettes. Samples were read against their equivalent solvent blank. Where necessary samples were diluted with methanol and these samples read against a methanol blank.
The concentration of each solution was determined by comparison with the absorbance of a capsaicin reference standard solution of known concentration.
Tween 80 results were very promising therefore the two materials were combined to investigate any possible synergistic effect on capsaicin solubility. […]

physchem [3] = type: physicochemical; settings: for solubility at 7 days: 2 °C; for solubility at 7 days / solubility at 4 days: thermodynamic from solid; for solubility at 4 days: 25 °C; for Indicative solubility of capsaicin, Concentration mg/ml: 4 days
Experimental: The solubility of capsaicin was determined for the following vehicles by adding an excess of capsaicin and determining the saturation solubility by UV analysis of the supernatant.
Aliquots of 5 ml of each vehicle were dispensed into vials in duplicate and excess capsaicin added equivalent to 5 mg/ml. A small magnetic stirrer bar was introduced into vials containing the gel vehicle and mixed for approximately 5 minutes to disperse the capsaicin. All vials were sonicated for a total of 20 minutes maintaining the temperature below 25° C. The vials were stirred for a further hour.
One vial from each formulation was placed at 25° C./60% RH and one vial from each formulation was placed on a shaker at 2-8° C.
Vials were removed from 25° C./60% RH after storage for 4 days. Vials stored at 2-8° C. were removed from the shaker after storage for 4 days and returned to 2-8° C. to equilibrate further before being removed after storage for a total of 7 days.
A reference solution containing capsaicin 0.06 mg/ml in methanol was prepared. Samples were centrifuged for 20 minutes at 15000 rpm. The resultant supernatant from each vial was carefully transferred to fresh vials. The supernatant from each sample was diluted 1 in 50 with methanol and analyzed by UV at 280 nm using matched quartz cuvettes versus a methanol blank.

[4] = pH 5.5, aqueous with cosolvent or surfactant or cyclodextrin, Indicative solubility of capsaicin, Concentration mg/ml
[5] = pH 7, aqueous with cosolvent or surfactant or cyclodextrin, Indicative solubility of capsaicin, Concentration mg/ml

Structure (SMILES) | potency relative to capsaicin [1] | solubility (physchem [2]; aqueous with cosolvent or surfactant or cyclodextrin, increase of capsaicin solubility for each 1% increase in Tween 80) | solubility (physchem [2]; organic solvent or mixture, Capsaicin Solubility (mg/ml)) | solubility at 7 days (physchem [3]; [4]) | solubility at 7 days (physchem [3]; [5]) | solubility at 4 days (physchem [3]; aqueous with cosolvent or surfactant or cyclodextrin, solubility of capsaicin gel formulations) | solubility at 4 days (physchem [3]; [4]) | solubility at 4 days (physchem [3]; [5]) | solubility at 4 days (physchem [3]; pH 7, aqueous with cosolvent or surfactant or cyclodextrin, capsaicin solubility in isotonic gel vehicles) | Indicative solubility of capsaicin, Concentration mg/ml (physchem [3]; pH 5.5) | Indicative solubility of capsaicin, Concentration mg/ml (physchem [3]; pH 7) | capsaicin concentration in gel formulations (physchem [3]; gel formulations stored at 2-8° C.)
C=C(C)[C@]12C[C@@H](C)[C@@]34O[C@](Cc5ccccc5)(O[C@@H]1[C@@H]3C=C(COC(=O)Cc1ccc(O)c(OC)c1)C[C@]1(O)C(=O)C(C)=C[C@@H]41)O2 [Resiniferatoxin] | 103-104 fold |  |  |  |  |  |  |  |  |  |  | 
COc1cc(CNC(=O)CCCC/C=C/C(C)C)ccc1O [Capsaicin, N-(4-hydroxy-3-methoxybenzyl)-8-methylnon-trans-6-enamide] |  | ~1000 µg/mL | 160000 µg/mL | 2200 µg/mL (≈ 7.2 mM) | 2000 µg/mL (≈ 6.55 mM) | 2000 µg/mL (≈ 6.55 mM) | 2200 µg/mL (≈ 7.2 mM) | 2100 µg/mL (≈ 6.88 mM) | ~2000 µg/mL (≈ 6.55 mM) | 2.1 mg/mL | 1.9 mg/mL | 2 mg/mL
